Assay: xn = mol fraction of the nth substance listed
Conditions: 101.33 kPa, Liquid; for speed of sound: Sing-around technique in a fixed-path interferometer

CCCC(C)O (centres undefined) [pentan-2-ol] + CCCCCCCC
Conditions | mass density, 293.15 K [kg/m3] | mass density, 298.15 K [kg/m3] | mass density, 303.15 K [kg/m3] | speed of sound, 293.15 K [m/s] | speed of sound, 298.15 K [m/s] | speed of sound, 303.15 K [m/s] | viscosity, 293.15 K [mPa·s] | viscosity, 298.15 K [mPa·s] | viscosity, 303.15 K [mPa·s]
x1 = 0.0509 | 705.58 | 701.48 | 697.35 | 1190 | 1170 | 1149 | 0.548 | 0.517 | 0.486
x1 = 0.105 | 709.15 | 705.03 | 700.87 | 1189 | 1169 | 1148 | 0.566 | 0.53 | 0.498
x1 = 0.1853 | 714.98 | 710.84 | 706.65 | 1188 | 1168 | 1147 | 0.598 | 0.56 | 0.525
x1 = 0.2976 | 723.78 | 719.63 | 715.43 | 1188 | 1168 | 1147 | 0.658 | 0.613 | 0.572
x1 = 0.3968 | 732.4 | 728.24 | 724.03 | 1189 | 1169 | 1149 | 0.732 | 0.678 | 0.629
x1 = 0.4953 | 741.91 | 737.73 | 733.5 | 1192 | 1172 | 1153 | 0.841 | 0.77 | 0.709
x1 = 0.5965 | 752.73 | 748.53 | 744.29 | 1198 | 1178 | 1158 | 1.008 | 0.915 | 0.826
x1 = 0.6993 | 764.97 | 760.76 | 756.5 | 1207 | 1187 | 1167 | 1.296 | 1.147 | 1.022
x1 = 0.7971 | 777.92 | 773.74 | 769.48 | 1218 | 1199 | 1179 | 1.727 | 1.495 | 1.307
x1 = 0.8997 | 792.82 | 788.69 | 784.49 | 1233 | 1214 | 1195 | 2.531 | 2.133 | 1.821
x1 = 0.9509 | 800.83 | 796.75 | 792.59 | 1242 | 1223 | 1204 | 3.19 | 2.635 | 2.215
x1 = 1 | 809.04 | 805.01 | 800.9 | 1250 | 1232 | 1214 | 4.001 | 3.273 | 2.708

CCCC(C)O (centres undefined) [pentan-2-ol] + CCCCCCCCCCCC
Conditions | mass density, 293.15 K [kg/m3] | mass density, 298.15 K [kg/m3] | mass density, 303.15 K [kg/m3] | speed of sound, 293.15 K [m/s] | speed of sound, 298.15 K [m/s] | speed of sound, 303.15 K [m/s] | viscosity, 293.15 K [mPa·s] | viscosity, 298.15 K [mPa·s] | viscosity, 303.15 K [mPa·s]
x1 = 0.049 | 749.65 | 745.96 | 742.26 | 1294 | 1275 | 1256 | 1.443 | 1.316 | 1.206
x1 = 0.0965 | 750.77 | 747.03 | 743.3 | 1291 | 1271 | 1252 | 1.441 | 1.312 | 1.201
x1 = 0.2065 | 753.81 | 750.05 | 746.25 | 1284 | 1265 | 1245 | 1.438 | 1.307 | 1.194
x1 = 0.2993 | 756.86 | 753.06 | 749.23 | 1278 | 1259 | 1240 | 1.465 | 1.33 | 1.211
x1 = 0.3986 | 760.67 | 756.84 | 752.97 | 1271 | 1252 | 1233 | 1.499 | 1.355 | 1.231
x1 = 0.5046 | 765.6 | 761.71 | 757.79 | 1265 | 1246 | 1227 | 1.563 | 1.406 | 1.27
x1 = 0.5974 | 770.7 | 766.77 | 762.79 | 1260 | 1241 | 1222 | 1.667 | 1.487 | 1.338
x1 = 0.7026 | 777.76 | 773.76 | 769.72 | 1255 | 1236 | 1217 | 1.865 | 1.635 | 1.447
x1 = 0.8001 | 785.82 | 781.77 | 777.66 | 1253 | 1233 | 1214 | 2.205 | 1.9 | 1.652
x1 = 0.8994 | 795.9 | 791.84 | 787.71 | 1251 | 1232 | 1213 | 2.786 | 2.347 | 1.998
x1 = 0.9497 | 802.07 | 798.02 | 793.89 | 1251 | 1232 | 1213 | 3.267 | 2.717 | 2.284
x1 = 1 | 809.04 | 805 | 800.9 | 1250 | 1232 | 1214 | 4.001 | 3.273 | 2.708

CCCC(C)O (centres undefined) [pentan-2-ol] + CCCCCCCCCC
Conditions | mass density, 293.15 K [kg/m3] | mass density, 298.15 K [kg/m3] | mass density, 303.15 K [kg/m3] | speed of sound, 293.15 K [m/s] | speed of sound, 298.15 K [m/s] | speed of sound, 303.15 K [m/s] | viscosity, 293.15 K [mPa·s] | viscosity, 298.15 K [mPa·s] | viscosity, 303.15 K [mPa·s]
x1 = 0.0487 | 731.62 | 727.76 | 723.89 | 1251 | 1231 | 1211 | 0.914 | 0.845 | 0.779
x1 = 0.0987 | 733.41 | 729.53 | 725.62 | 1248 | 1228 | 1209 | 0.912 | 0.844 | 0.782
x1 = 0.2043 | 738.14 | 734.23 | 730.28 | 1243 | 1223 | 1204 | 0.956 | 0.882 | 0.81
x1 = 0.2996 | 742.88 | 738.94 | 734.96 | 1239 | 1220 | 1200 | 0.989 | 0.909 | 0.842
x1 = 0.4006 | 748.67 | 744.7 | 740.69 | 1236 | 1216 | 1197 | 1.084 | 0.99 | 0.883
x1 = 0.5017 | 755.31 | 751.3 | 747.25 | 1233 | 1214 | 1194 | 1.149 | 1.044 | 0.952
x1 = 0.6002 | 762.88 | 758.83 | 754.73 | 1232 | 1213 | 1193 | 1.3 | 1.166 | 1.053
x1 = 0.6985 | 771.67 | 767.58 | 763.44 | 1233 | 1214 | 1194 | 1.531 | 1.352 | 1.201
x1 = 0.7992 | 782.4 | 778.29 | 774.12 | 1237 | 1217 | 1198 | 1.914 | 1.646 | 1.439
x1 = 0.8996 | 794.55 | 790.46 | 786.3 | 1242 | 1223 | 1204 | 2.626 | 2.214 | 1.888
x1 = 0.95 | 801.5 | 797.43 | 793.28 | 1246 | 1228 | 1209 | 3.205 | 2.651 | 2.244
x1 = 1 | 809.04 | 805.01 | 800.9 | 1250 | 1232 | 1214 | 4.001 | 3.273 | 2.708

Reference: the NIST ThermoML archive (doi:10.1021/je034208m)
